In publication PMC7200784, “In-vitro safety and off-target profile of the anti-parasitic arylmethylaminosteroid 1o” (Scientific Reports, 2020):

Test system: Caco-2 cell barrier
Assay: Caco-2 cell barrier integrity (TEER and capacitance, cellZscope2)
Type: cell-based
Settings: 20 h after addition, value before addition = 100%; 10 mM EGTA
Experimental: Twenty thousand CaCo-2 cells were seeded on 24-well ThinCerts (pre-coated with FCS for 30 min). In the lower compartment (basolateral), 1 ml culture medium per well was added. As a control, half of the ThinCerts were not seeded with cells. The ThinCerts were transferred to the cellZscope2 (nanoAnalytics). Two hundred µl of medium was added to the ThinCerts to reach a final volume of 300 µl in the upper compartment (apical). The TEER and capacitance were measured every hour. After 5 days, the TEER reached a constant value of 700–900 Ohm*cm² and the medium was replaced with EMEM with 2% FCS, 2 mM L-glutamine, 1x non-essential amino acids, and 110 nM hydrocortisone. The TEER and capacitance were measured every hour for 1 day. Sc1o (0 µM, 1 µM, 10 µM, 25 µM, 50 µM) diluted in EMEM with 2% FCS, 2 mM L-glutamine, 1x non-essential amino acids, and 110 nM hydrocortisone were added to the apical compartment. As a control, 10 mM of EGTA was used. The cellZscope2 module was transferred into the incubator for 24 h, and every 30 min the TEER and capacitance were detected. TEER and capacitance values at the time point of adding the compound solution were used as references to calculate the alteration (t0h-value). […] At time point 0h and after 24 h the medium of the basolateral and apical compartment was collected and stored at −20 °C and analysed by LC-MS/MS.

O=C(O)CN(CCOCCOCCN(CC(=O)O)CC(=O)O)CC(=O)O [EGTA, Ethylene glycol-bis(β-aminoethyl ether)-N,N,N′,N′-tetraacetic acid]
Relative TEER: 0.12 ± 0.03%
Relative capacitance: 481 ± 168%
